Literature values, collected in patent US20230233494A1, “BIOAVAILABLE SUGAR-BASED DICLOFENAC FORMULATIONS” (APR Applied Pharma Research SA, priority 2020, published 2023).
Counter-ions that a name gives are not always drawn.

Details: at acidic pH

Solubility: sparingly soluble
SMILES: O=C(O)Cc1ccccc1Nc1c(Cl)cccc1Cl [diclofenac potassium, [2-(2,6-dichlorophenyl)amino]benzeneacetate, potassium salt]
